Test results taken from PubChem BioAssay (NCI).
“And” between values parts separate entries of the source, which are not always exact repeats. Equal entries are not always repeated.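 A five-concentration, 48-hour dose response in 96-well plates underlies each endpoint, interpolated linearly between surrounding concentrations. GI50: concentration for 50% inhibition of growth. TGI: concentration producing complete growth inhibition.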 Residues, ends and D or L forms follow the SMILES beside them. *: point of attachment. Cbz = O=C(OCc1ccccc1)*

Key:
Test in all cases: growth of human tumour cells (NCI), 48 h
CAKI-1 renal = tested on: CAKI-1 renal
HOP-92 NSCLC = tested on: HOP-92 NSCLC
KM12 colon = tested on: KM12 colon
M14 melanoma = tested on: M14 melanoma
NCI-H226 lung = tested on: NCI-H226 lung
SK-MEL-28 melanoma = tested on: SK-MEL-28 melanoma
SNB-75 CNS = tested on: SNB-75 CNS
SR leukemia = tested on: SR leukemia
UACC-62 melanoma = tested on: UACC-62 melanoma
PC-3 prostate = tested on: PC-3 prostate

Row | SMILES | TGI (CAKI-1 renal) | TGI (HOP-92 NSCLC) | TGI (KM12 colon) | TGI (M14 melanoma) | TGI (NCI-H226 lung) | TGI (SK-MEL-28 melanoma) | TGI (SNB-75 CNS) | TGI (SR leukemia) | TGI (UACC-62 melanoma) | GI50 (CAKI-1 renal) | GI50 (HOP-92 NSCLC) | GI50 (KM12 colon) | GI50 (M14 melanoma) | GI50 (NCI-H226 lung) | GI50 (SK-MEL-28 melanoma) | GI50 (SNB-75 CNS) | GI50 (SR leukemia) | GI50 (UACC-62 melanoma) | GI50 (PC-3 prostate) | TGI (PC-3 prostate)
1 | CC(C)=NNC(=S)NC12CC3CC(CC(C3)C1)C2 | > 100 µM | > 100 µM | > 100 µM | > 100 µM | > 100 µM | > 100 µM | > 100 µM | > 100 µM | > 100 µM |  |  |  |  |  |  |  |  |  |  | 
2 | COc1cc(/C=C/C(=O)c2c(-c3ccc(F)cc3)nc3sc(C)nn23)cc(OC)c1OC | 18.2 µM | 8.64 µM | 4.59 µM | 8.1 µM | 8.3 µM | 4.9 µM | 14.6 µM | 5.27 µM | 4.44 µM | 3.27 µM | 1.6 µM | 1.97 µM | 3.05 µM | 2.46 µM | 2.19 µM | 2.67 µM | 1.77 µM | 1.94 µM |  | 
3 | Cc1ccc(OCCOCCOCCOCCOCCOc2ccc(C)n(O)c2=S)c(=S)n1O | > 100 µM | 54.5 µM | 39.1 µM | 0.43 µM | 14.7 µM | > 48.7 µM | 18.1 µM |  | 12.5 µM | 0.0453 µM | 3.06 µM | 0.0573 µM | 0.0619 µM | 0.0576 µM | 0.23 µM | 0.456 µM |  | 0.0815 µM | 0.345 µM | > 100 µM
4 | NC(N)=N/N=C/c1c(-c2cccnc2)nc2sc(Cl)cn12 | 43.4 µM |  | 14.3 µM | 30.1 µM | 28 µM |  |  | > 100 µM | 27.1 µM | 20.5 µM |  | 3.95 µM | 16.5 µM | 13.4 µM |  |  | 17.1 µM | 14.1 µM | 15.2 µM | 28.5 µM
5 | CC(C)C[C@@H](C=O)NC(=O)[C@H](CC(C)C)NC(=O)[C@H](CC(C)C)NC(=O)OCc1ccccc1 (Cbz-Leu-Leu-Leu-aldehyde) |  | 0.797 µM | 0.751 µM | 1.74 µM |  | 11.6 µM |  | 86.6 µM | 0.548 µM |  | 0.319 µM | 0.281 µM | 0.338 µM |  | 0.419 µM |  | 0.366 µM | 0.235 µM | 0.479 µM | 2.91 µM
6 | C=C1CC2(CCS(=O)(=O)c3ccccc32)OC1=O (stereo unspecified) | 3.3 µM | 14.2 µM | 37.8 µM | 20.3 µM | 28.9 µM | 27.8 µM |  |  | 31.6 µM |  |  |  |  |  |  |  |  |  |  | 
7 | COC12OCCN(C)C1=CC(=O)C1(C)N=NCC12 (stereo unspecified) | > 100 µM | > 100 µM | > 100 µM | > 100 µM | > 100 µM | > 100 µM | > 100 µM |  | > 100 µM |  |  |  |  |  |  |  |  |  |  | 
8 | C=CC(=O)N1CC[C@H](n2nc(C#Cc3cc(OC)cc(OC)c3)c3c(N)ncnc32)C1 | > 100 µM | 9.23 µM | > 100 µM | > 100 µM | > 100 µM | > 100 µM | 6.91 µM |  | > 100 µM | 7.06 µM | 1.84 µM | 11.2 µM | 15.3 µM | 6.42 µM | 21.9 µM | 0.343 µM |  | 6.95 µM | 11.3 µM | > 100 µM
9 | CCOC(=O)CN(c1ccccc1)c1nc(=[N+](C)C)ss1 | 87.8 µM |  |  | 96.8 µM | 75.4 µM | > 100 µM | > 100 µM | 41.9 µM | 59.3 µM |  |  |  |  |  |  |  |  |  |  | 
10 | Cc1ccc(C(=O)NCCN(C)C)c2nc3ccccc3cc12 | 25.6 µM | > 100 µM | 6.91 µM | > 100 µM | 3.85 µM | 5.46 µM | 3.54 µM |  | > 100 µM |  |  |  |  |  |  |  |  |  |  | 
11 | COC(=O)C1[C@H](c2ccc3c(c2)OCO3)OC(=O)[C@]1(C(=O)OC)C(=O)c1ccc(OC)c(OC)c1 (stereo partly specified) | > 100 µM | > 100 µM | > 100 µM | > 100 µM | > 100 µM |  | > 100 µM | > 100 µM | > 100 µM |  |  |  |  |  |  |  |  |  |  | 
12 | Cc1ccc(S(=O)(=O)OCCOCCOCCOCCOCCOS(=O)(=O)c2ccc(C)cc2)cc1 | > 100 µM | 99.3 µM | > 100 µM | > 100 µM | > 100 µM | > 100 µM | > 100 µM | 90.9 µM | > 100 µM |  |  |  |  |  |  |  |  |  |  | 
13 | COC(=O)CNc1nc(N(C)O)nc(N(C)O)n1 | > 100 µM | > 100 µM | > 100 µM | 32.6 µM | > 100 µM | > 100 µM | > 100 µM |  | 29.1 µM | 13.1 µM | > 100 µM | 5.65 µM | 3.38 µM | 8.31 µM | 4.53 µM | 4.2 µM |  | 4.3 µM | > 100 µM | > 100 µM
14 | CN1CCN(CCCN2c3ccccc3Sc3ccc(Cl)cc32)CC1 | 9.02 µM and 74.2 µM | 5.25 µM | 12.4 µM and 95.2 µM |  |  |  |  | 11.3 µM |  |  | 0.894 µM |  |  |  |  |  | 2.99 µM |  | 3.39 µM | 10.4 µM and 80.7 µM
15 | C=CC(=O)Nc1cccc(Oc2nc(Nc3ccc(N4CCN(C)CC4)cc3OC)ncc2Cl)c1 | 2.44 µM | 2.55 µM | 11.2 µM | 3.47 µM | 5.66 µM | 4.07 µM | 3.98 µM |  | 3.58 µM | 0.985 µM | 0.743 µM | 3.46 µM | 1.82 µM | 1.81 µM | 2.02 µM | 1.52 µM |  | 1.87 µM | 2.19 µM | 7.03 µM
16 | N#CCc1nnc(N)o1 | > 100 µM | > 100 µM | > 100 µM | > 100 µM | > 100 µM | > 100 µM | > 100 µM | > 100 µM | > 100 µM |  |  |  |  |  |  |  |  |  |  | 
17 | COc1cc2c(c(OC)c1OC)-c1c(c3ccc([N+](=O)[O-])cc3c(=O)n1CCCN)C2=O | 10.9 µM | 15.8 µM | 18.1 µM | 1.53 µM | 19.4 µM |  |  |  | 17 µM | 0.895 µM | 7.21 µM | 6.64 µM | 0.835 µM | 9.38 µM |  |  |  | 9.12 µM | 7.68 µM | 15 µM
18 | CC[PH+](CC)CC.CC[PH+](CC)CC.[Au] | 13.5 µM | 15.2 µM | 33.3 µM | 22 µM | 37.5 µM | 16.9 µM | 29 µM |  | 19.1 µM | 6.8 µM | 7.43 µM | 16.3 µM | 6.68 µM | 18.2 µM | 3.88 µM | 15 µM |  | 3.9 µM |  | 
